These results are taken from patent US20080090805A1, “CB-1 MODULATING COMPOUNDS AND THEIR USE” (ACADIA PHARMACEUTICALS INC., priority 2005, published 2008).

Structures are written as SMILES.

Assay [1] concerns the target native CB1 receptors (Rattus norvegicus, UniProt P20272). Nature of the assay: CB1 receptor rat binding assay ([3H]SR141716A, rat brain membranes). The note with it: rat brain membranes, [3H]SR141716A; for Ki: read-out: Binding rat pKi (converted).
Assay [2] has as its target CB1 (mutant) (Homo sapiens, UniProt P21554). Nature of the assay: R-SAT functional receptor assay, CB1 (mutant, truncated after amino acid 417). The class given is cell-based. The note with it: Appendix A, R-SAT CB1; for IC50: receptor form (mutant or wild-type) not stated, read-out: pIC50 (converted); for Emax: receptor form not stated, relative to SR141716 (100%), read-out: % Inhibition.

native CB1 receptors, sequence (P20272 whole entry, the tested form may be a part): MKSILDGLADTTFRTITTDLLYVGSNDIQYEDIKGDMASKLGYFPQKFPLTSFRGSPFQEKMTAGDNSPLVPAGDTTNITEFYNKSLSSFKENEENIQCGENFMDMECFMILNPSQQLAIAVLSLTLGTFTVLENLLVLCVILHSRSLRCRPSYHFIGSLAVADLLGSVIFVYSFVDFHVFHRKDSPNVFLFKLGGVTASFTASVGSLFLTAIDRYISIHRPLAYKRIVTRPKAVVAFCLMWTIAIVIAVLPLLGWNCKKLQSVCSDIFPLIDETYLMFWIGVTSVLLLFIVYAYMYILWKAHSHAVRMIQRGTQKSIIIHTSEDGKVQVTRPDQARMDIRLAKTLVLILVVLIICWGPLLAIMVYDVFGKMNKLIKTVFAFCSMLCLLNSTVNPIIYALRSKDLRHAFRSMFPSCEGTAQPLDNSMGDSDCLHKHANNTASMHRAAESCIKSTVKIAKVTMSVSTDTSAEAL
CB1 (mutant), sequence (P21554 1-417, change not shown): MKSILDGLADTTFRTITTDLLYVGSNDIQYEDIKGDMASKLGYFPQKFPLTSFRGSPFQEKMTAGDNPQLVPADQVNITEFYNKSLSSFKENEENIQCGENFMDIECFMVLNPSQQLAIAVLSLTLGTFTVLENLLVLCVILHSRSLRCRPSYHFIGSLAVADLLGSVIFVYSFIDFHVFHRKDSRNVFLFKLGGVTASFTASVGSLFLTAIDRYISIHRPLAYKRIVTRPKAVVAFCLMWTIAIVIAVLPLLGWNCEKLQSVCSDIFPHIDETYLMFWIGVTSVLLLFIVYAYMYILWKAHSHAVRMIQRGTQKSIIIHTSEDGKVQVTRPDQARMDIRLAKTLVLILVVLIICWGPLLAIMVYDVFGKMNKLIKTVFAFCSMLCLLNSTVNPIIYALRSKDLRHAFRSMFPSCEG

`CCCCNC(=O)c1ccc2c(c1)N=C(c1cccc(F)c1)c1ccccc1S2` [drawing 1498]: in assay [1], the “Binding rat Inh %” value came to 82% and the Ki is 0.01 µM.

For the compound `O=C(NCCC(F)(F)F)c1ccc2c(c1)N=C(c1ccc(Cl)s1)c1ccccc1S2` [drawing 1273], in assay [1], the “Binding rat Inh %” value was 85% and the Ki was 0.002 µM.

For the compound `O=C(NCCc1ccc(Cl)cc1)c1ccc2c(c1)N=C(N1CCCCC1)c1ccccc1S2` [drawing 1345], the Ki in assay [1] is 0.00398 µM.

Take `O=C(NCCc1ccccc1)c1ccc2c(c1)N=C(c1ccccc1)c1ccccc1S2` [drawing 1332]: in assay [1], the Ki is 0.0251 µM.

With `O=C(NCc1ccccc1Cl)c1ccc2c(c1)N=C(N1CCCCC1)c1ccccc1S2` [drawing 1366], the Ki in assay [1] is 0.0316 µM.

As to `O=C(NN1CCCCC1)c1ccc2c(c1)N=C(c1cccc(Br)c1)c1ccccc1S2` [drawing 1487], in assay [1], the Ki was 0.01 µM.

In the case of `O=C(Cc1ccccc1)NNC(=O)c1ccc2c(c1)N=C(c1ccc(F)cc1)c1ccccc1S2` [drawing 1190], in assay [1], the “Binding rat Inh %” value was determined as 65% and the Ki was 0.0126 µM.

As to `O=C(NCCc1ccccc1)c1ccc2c(c1)N=C(c1ccc(F)cc1)c1ccccc1S2` [drawing 1335], the Ki in assay [1] is 0.00398 µM.

With `CCCCNC(=O)c1ccc2c(c1)N=C(c1cccc(Cl)c1)c1ccccc1S2` [drawing 1479], in assay [1], the Ki was 0.00794 µM.

With `O=C(NCc1ccc(F)cc1)c1ccc2c(c1)N=C(C1CCCCC1)c1ccccc1S2` [drawing 1336], the Ki in assay [1] was 0.00398 µM.

For `Cc1ccsc1C1=Nc2cc(C(=O)NN3CCCCC3)ccc2Sc2ccccc21` [drawing 1182], in assay [1], the “Binding rat Inh %” value is 59% and the Ki was 0.0126 µM.

With `O=C(NCc1ccccc1Cl)c1ccc2c(c1)N=C(c1ccccc1F)c1ccccc1S2` [drawing 1413], in assay [1], the Ki is 0.0398 µM.

`Cc1ccc(CNC(=O)c2ccc3c(c2)N=C(c2ccc(Cl)c(Cl)c2)c2ccccc2S3)o1` [drawing 1320]: in assay [1], the “Binding rat Inh %” value is listed as 96% and the Ki is 0.00316 µM.

As for `C[C@@H]1CCC[C@H](C)N1NC(=O)c1ccc2c(c1)N=C(c1ccc(F)cc1)c1ccccc1S2` [drawing 1356], in assay [1], the “Binding rat Inh %” value stood at 108% and the Ki was 0.0316 µM.

With `Cc1ccsc1C1=Nc2cc(C(=O)NCc3cccs3)ccc2Sc2ccccc21` [drawing 1344], in assay [1], the “Binding rat Inh %” value worked out at 99% and the Ki was 0.00398 µM.

For the compound `CC(C)CNC(=O)c1ccc2c(c1)N=C(c1ccc(F)cn1)c1ccccc1S2` [drawing 1254], in assay [1], the “Binding rat Inh %” value amounted to 97% and the Ki is 0.0158 µM.

`COc1ccc(C2=Nc3cc(C(=O)NN4[C@H](C)CCC[C@@H]4C)ccc3Sc3ccccc32)cc1` [drawing 1432]: in assay [1], the “Binding rat Inh %” value is 88% and the Ki was 0.00631 µM.

As to `O=C(NCCc1ccccn1)c1ccc2c(c1)N=C(c1ccc(Br)cc1)c1ccccc1S2` [drawing 1460], in assay [1], the “Binding rat Inh %” value was 61% and the Ki is 0.0501 µM.

Turning to `O=C(NCc1cccnc1)c1ccc2c(c1)N=C(c1ccc(F)cc1)c1ccccc1S2` [drawing 1541], in assay [1], the “Binding rat Inh %” value amounted to 97% and the Ki was 0.0126 µM.

For `CC(C)CNC(=O)c1ccc2c(c1)N=C(c1cccc(Cl)c1)c1ccccc1S2` [drawing 1361], in assay [1], the “Binding rat Inh %” value turned out to be 99% and the Ki was 0.00398 µM.

For the compound `O=C(NCCc1ccncc1)c1ccc2c(c1)N=C(c1ccc(Cl)cc1)c1ccccc1S2` [drawing 1339], in assay [1], the “Binding rat Inh %” value stood at 96% and the Ki was 0.0251 µM.

As to `O=C(NC1CCCC1)c1ccc2c(c1)N=C(c1ccc(F)cc1)c1ccccc1S2` [drawing 1268], in assay [1], the “Binding rat Inh %” value is recorded as 84% and the Ki is 0.02 µM.

Regarding `CC(C)CCNC(=O)c1ccc2c(c1)N=C(c1ccccn1)c1ccccc1S2` [drawing 1349], in assay [1], the “Binding rat Inh %” value is 86% and the Ki was 0.0316 µM.

Consider `O=C(NCCc1ccncc1)c1ccc2c(c1)N=C(c1ccc(Cl)c(Cl)c1)c1ccccc1S2` [drawing 1497], for which, in assay [1], the “Binding rat Inh %” value is listed as 123% and the Ki is 0.01 µM.

For `CCCCNC(=O)c1cc2c(cc1O)Sc1ccccc1C(c1ccc(Cl)cc1)=N2` [drawing 1410], in assay [1], the “Binding rat Inh %” value came to 103% and the Ki was 0.00631 µM.

Take `O=C(NCCc1ccccn1)c1ccc2c(c1)N=C(c1ccc(Cl)c(Cl)c1)c1ccccc1S2` [drawing 1452]: in assay [1], the “Binding rat Inh %” value is 114% and the Ki was 0.0501 µM.

`Cc1cccc(C2=Nc3cc(C(=O)NCC(C)C)ccc3Sc3ccccc32)n1` [drawing 1472]: in assay [1], the “Binding rat Inh %” value came to 96% and the Ki was 0.00794 µM.

For `CCOC(=O)c1ccc(C2=Nc3cc(C(=O)NCc4cccnc4)ccc3Sc3ccccc32)cc1` [drawing 1350], in assay [1], the “Binding rat Inh %” value amounted to 90% and the Ki was 0.0316 µM.

As for `CC(NC(=O)c1ccc2c(c1)N=C(c1ccc(Cl)cc1)c1ccccc1S2)c1ccccc1` (stereo not shown) [drawing 1493], the Ki in assay [1] was 0.0631 µM.

On to `O=C(NCCc1ccc(Cl)cc1)c1ccc2c(c1)N=C(c1ccccc1F)c1ccccc1S2` [drawing 1228], for which the Ki in assay [1] is 0.0158 µM.

On to `Cc1ccc(CNC(=O)c2ccc3c(c2)N=C(c2cccc(Cl)c2)c2ccccc2S3)o1` [drawing 1231], for which, in assay [1], the “Binding rat Inh %” value was 85% and the Ki is 0.000631 µM.

Regarding `CCCCNC(=O)c1ccc2c(c1)N=C(c1ccc(Cl)s1)c1cc(F)ccc1S2` [drawing 1515], in assay [1], the “Binding rat Inh %” value came to 96% and the Ki is 0.01 µM.

For `CCCC1=Nc2cc(C(=O)NCCCc3ccccc3)ccc2Sc2ccccc21` [drawing 1357], the Ki in assay [1] was 0.0316 µM.

Regarding `O=C(NNCC(F)(F)F)c1ccc2c(c1)N=C(c1cccc(Cl)c1)c1ccccc1S2` [drawing 1467], in assay [1], the “Binding rat Inh %” value came to 97% and the Ki was 0.0501 µM.

As for `CC(C)CNC(=O)c1ccc2c(c1)N=C(c1ccccn1)c1ccccc1S2` [drawing 1021], in assay [2], the IC50 is 0.0251 µM and the Emax stood at 96%.

Turning to `Cc1ccc(CNC(=O)c2ccc3c(c2)N=C(c2ccsc2)c2ccccc2S3)o1` [drawing 803], in assay [2], the IC50 is 0.01 µM and the Emax came to 94%.

On to `CCCC1=Nc2cc(C(=O)N3CCN(C(=O)c4ccco4)CC3)ccc2Sc2ccccc21`, for which, in assay [2], the IC50 is 2.51 µM and the Emax turned out to be 88%.

Regarding `O=C(c1ccc2c(c1)N=C(c1ccccc1F)c1ccccc1S2)N1CCCCC1`, in assay [2], the IC50 was 0.0794 µM and the Emax worked out at 73%.

Turning to `Cc1csc(CNC(=O)c2ccc3c(c2)N=C(c2ccsc2)c2ccccc2S3)c1` [drawing 563], in assay [2], the IC50 is 0.00251 µM and the Emax was 93%.

Regarding `O=C(NN1CCCCCC1)c1ccc2c(c1)N=C(c1cccc(Cl)c1)c1ccccc1S2` [drawing 597], in assay [2], the IC50 is 0.00398 µM and the Emax is 95%.

Consider `COc1ccccc1C1=Nc2cc(C(=O)NCCC(C)C)ccc2Sc2ccccc21`, for which, in assay [2], the Emax is 91%.

As to `COc1ccc(C2=Nc3cc(C(=O)NCc4ccncc4)ccc3Sc3ccccc32)cc1` [drawing 728], in assay [2], the IC50 is 0.0794 µM and the Emax was found to be 105%.

For `CC(C)CCNC(=O)c1ccc2c(c1)N=C(c1cccc(Cl)c1)c1ccccc1S2` [drawing 567], in assay [2], the IC50 was 0.00251 µM and the Emax was found to be 115%.

Take `O=C(NCCC(F)(F)F)c1ccc2c(c1)N=C(c1cccc(F)c1)c1ccccc1S2` [drawing 625]: in assay [2], the IC50 is 0.00501 µM and the Emax amounted to 85%.
